Test results published in patent publication US20100016598A1 (WYETH, priority 2008, published 2010).

Legend:
[1] = target: T1, alpha7 nicotinic acetylcholine receptor (Rattus norvegicus, UniProt Q05941); assay: functional FLIPR assay, alpha7 nAChR stably expressed in GH4C1 cells; format: cell-based; conditions: GH4C1 cell line expressing the alpha7 nAChR; concentration-response curves; read-out: Alpha 7 EC50
T1 construct: expressed in transfected cells

[2] = target: T2, alpha3 (ganglionic) nACh receptors (Homo sapiens, UniProt P30926+P32297); assay: calcium-monitoring FLIPR selectivity assay using the native SH-SY5Y cell line; format: cell-based; conditions: read-out: Alpha 3 EC50
T2 construct: using the native SH-SY5Y cell line; endogenous in cells; host or cells: SH-SY5Y
Text: Functional FLIPR assays were developed in order to test the selectivity of compounds against the alpha1 (muscular) and alpha3 (ganglionic) nACh receptors and the structurally related 5-HT3 receptor. […] In order to test selectivity against the 5-HT3 receptor, a recombinant cell line was constructed expressing the human 5-HT3A receptor in HEK 293 cells and a calcium-monitoring FLIPR assay employed.

T2 sequence (P32297 32-505): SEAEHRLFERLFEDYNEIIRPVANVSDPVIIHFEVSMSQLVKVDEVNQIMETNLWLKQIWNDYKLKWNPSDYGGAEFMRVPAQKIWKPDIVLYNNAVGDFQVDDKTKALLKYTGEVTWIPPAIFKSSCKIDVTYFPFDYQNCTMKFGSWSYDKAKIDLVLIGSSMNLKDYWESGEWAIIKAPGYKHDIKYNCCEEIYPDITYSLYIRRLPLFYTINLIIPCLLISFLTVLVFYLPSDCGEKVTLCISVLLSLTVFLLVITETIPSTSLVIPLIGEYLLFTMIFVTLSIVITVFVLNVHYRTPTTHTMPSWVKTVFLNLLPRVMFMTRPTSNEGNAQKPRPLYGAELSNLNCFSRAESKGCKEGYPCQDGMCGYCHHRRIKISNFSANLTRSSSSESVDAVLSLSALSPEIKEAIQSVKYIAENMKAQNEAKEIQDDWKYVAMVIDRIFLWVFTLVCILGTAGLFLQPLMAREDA
T2 sequence (P30926 22-498): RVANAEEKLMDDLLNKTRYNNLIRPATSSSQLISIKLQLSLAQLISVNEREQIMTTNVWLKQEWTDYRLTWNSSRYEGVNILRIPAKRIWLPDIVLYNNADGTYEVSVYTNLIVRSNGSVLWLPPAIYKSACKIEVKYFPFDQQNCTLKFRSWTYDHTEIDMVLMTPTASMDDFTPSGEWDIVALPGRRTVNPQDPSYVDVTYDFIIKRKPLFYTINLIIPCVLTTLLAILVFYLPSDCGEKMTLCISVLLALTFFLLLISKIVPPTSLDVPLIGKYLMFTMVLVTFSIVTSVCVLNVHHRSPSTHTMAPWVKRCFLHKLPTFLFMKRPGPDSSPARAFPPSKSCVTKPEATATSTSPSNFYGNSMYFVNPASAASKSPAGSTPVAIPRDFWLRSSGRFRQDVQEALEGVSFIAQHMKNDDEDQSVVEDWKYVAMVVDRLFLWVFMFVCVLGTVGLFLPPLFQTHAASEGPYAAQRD
T1 sequence (Q05941 23-502): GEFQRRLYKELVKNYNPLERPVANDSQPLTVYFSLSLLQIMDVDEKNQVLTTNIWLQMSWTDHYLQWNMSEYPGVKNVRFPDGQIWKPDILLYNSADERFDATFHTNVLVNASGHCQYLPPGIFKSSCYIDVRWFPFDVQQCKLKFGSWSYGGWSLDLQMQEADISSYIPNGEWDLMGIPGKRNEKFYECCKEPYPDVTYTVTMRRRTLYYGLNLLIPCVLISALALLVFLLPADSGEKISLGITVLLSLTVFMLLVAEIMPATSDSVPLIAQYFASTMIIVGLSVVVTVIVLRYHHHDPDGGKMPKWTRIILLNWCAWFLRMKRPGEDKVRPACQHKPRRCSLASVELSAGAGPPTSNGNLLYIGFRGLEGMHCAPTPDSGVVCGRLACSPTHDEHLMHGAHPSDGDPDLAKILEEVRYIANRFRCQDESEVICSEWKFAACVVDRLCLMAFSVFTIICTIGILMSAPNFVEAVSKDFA

EC50 [1]: 60 nM
EC50 [2]: 5.67 µM
SMILES: COc1ncccc1-c1ccc(NC(=O)NCCCCN2CCCCC2)cc1
